Data on two molecules can be found in ChEMBL document CHEMBL5154853, “Synthesis and Pharmacological Evaluation of New N-Sulfonylureas as NLRP3 Inflammasome Inhibitors: Identification of a Hit Compound to Treat Gout” (J Med Chem, 2022).

Data set [1] relates to J774.A1. The experiment in a line: Cytotoxicity against mouse J774.A1 cells assessed as reduction in cell viability at 30 uM measured after 24 hrs by MTT assay relative to control. The conditions noted are these: j774.a1, 24 h. The format is toxicity, cell-based. On the technique in general: Formazan colour is commonly taken as a measure of viable cells.
The test system of data set [2] is Mus musculus. In words: Antiinflammatory activity in MSU-induced acute gout arthritis in wild type male C57BL/6J mouse model assessed as decrease in paw inflammation at 3 mg/kg, ip measured after 24 hrs. Format: functional, organism-based.
The target of data set [3] is NACHT, LRR and PYD domains-containing protein 3 (Mus musculus, UniProt Q8R4B8). The experiment in a line: Inhibition of NLRP3 inflammasome activation in LPS-primed mouse BMDM cells assessed as reduction in ATP induced IL-1beta release pretreated for 15 mins followed by ATP stimulation for 30 mins by ELISA. Format: cell-based. Background: In an ELISA, binding on a coated surface is turned into a signal by an enzyme label.

Data set [4] concerns Mus musculus. In words: Antiinflammatory activity in MSU-induced acute gout arthritis in NLRP3 knock out C57BL/6J mouse model assessed as reduction in paw swelling at 3 mg/kg, ip measured after 24 hrs relative to control. Format: functional. Details: scale not given: the % may be the effect or the level left.
In the next data set the test system is AML12. In words: Cytotoxicity against mouse AML12 cells assessed as reduction in cell viability at 0.01 to 30 uM measured after 24 hrs by MTT assay. The format is toxicity, cell-based. The following applies: aml12, 24 h, dose 0.01-30 µM.
Data set [5] concerns J774.A1. The experiment in a line: Cytotoxicity against mouse J774.A1 cells assessed as reduction in cell viability at 10 uM measured after 24 hrs by MTT assay relative to control. Format: toxicity, cell-based. The conditions noted are these: j774.a1, 24 h.
Data set [6] relates to J774.A1. In words: Cytotoxicity against mouse J774.A1 cells assessed as reduction in cell viability at 0.01 to 3 uM measured after 24 hrs by MTT assay. Format: toxicity, cell-based. The conditions noted are these: j774.a1, 24 h, dose 0.01-3 µM.
Data set [7] has as its target NACHT, LRR and PYD domains-containing protein 3 (Mus musculus) (UniProt Q8R4B8). In words: Inhibition of NLRP3 inflammasome activation in LPS-primed mouse BMDM cells assessed as inhibition of IL-1beta cleavage in supernatant at 1 uM pretreated for 15 mins followed by ATP addition for 30 mins by Western blot analysis. The format is cell-based. The conditions noted are these: time 45.0 min.

Data set [8] deals with Mus musculus. In words: Antiinflammatory activity in MSU-induced acute gout arthritis in wild type male C57BL/6J mouse model assessed as decrease in paw inflammation at 10 mg/kg, ip measured after 24 hrs relative to control. On the set-up: scale not given: the % may be the effect or the level left. Format: functional.
The target of data set [9] is NACHT, LRR and PYD domains-containing protein 3 (Mus musculus) (UniProt Q8R4B8). In words: Inhibition of NLRP3 inflammasome activation in LPS-primed mouse BMDM cells assessed as inhibition of caspase-1 cleavage in supernatant at 1 uM pretreated for 15 mins followed by ATP addition for 30 mins by Western blot analysis. The format is cell-based. The conditions noted are these: time 45.0 min. A general note: In western blotting, separated proteins are transferred to a membrane and probed.

Data set [10] relates to Mus musculus. The experiment in a line: Analgesic activity in MSU-induced mechanical hyperalgesia in wild type C57BL/6J mouse model assessed as decrease in paw withdrawal threshold at 3 mg/kg, ip measured after 24 hrs by von Frey test (Rvb= 72%). Details: scale not given: the % may be the effect or the level left. The format is functional.
Data set [11] relates to Mus musculus. The experiment in a line: Antiinflammatory activity in MSU-induced acute gout arthritis in NLRP3 knockout male C57BL/6J mouse model assessed as reduction in paw inflammation at 3 to 10 mg/kg, ip measured after 24 hrs relative to control. Format: functional. Details: scale not given: the % may be the effect or the level left. The conditions noted are these: dose 3-10 mg/kg.

Data set [12] deals with Mus musculus. The experiment in a line: Antiinflammatory activity in MSU-induced acute gout arthritis in wild type female C57BL/6J mouse model assessed as decrease in paw inflammation at 3 mg/kg, ip measured after 24 hrs relative to control. The format is functional. Details: scale not given: the % may be the effect or the level left.
Data set [13] concerns the target NACHT, LRR and PYD domains-containing protein 3 (Mus musculus) (UniProt Q8R4B8). In words: Inhibition of NLRP3 inflammasome oligomerization in LPS-primed mouse BMDM cells assessed as prevention of ASC specks formation at 1 uM pretreated for 15 mins followed by MSU stimulation for 30 mins by DAPI staining based confocal microscopic analysis. The format is cell-based. The conditions noted are these: time 45.0 min.

Data set [14] shares this target. The experiment in a line: Inhibition of NLRP3 inflammasome oligomerization in LPS-primed mouse BMDM cells assessed as prevention of ASC specks formation at 1 uM pretreated for 15 mins followed by ATP stimulation for 30 mins by DAPI staining based confocal microscopic analysis. The format is cell-based. The conditions noted are these: time 45.0 min.
In data set [15] the test system is Mus musculus. In words: Antiinflammatory activity in MSU-induced acute gout arthritis in wild type male C57BL/6J mouse model assessed as decrease in paw inflammation at 3 to 10 mg/kg, ip measured after 24 hrs. The format is functional, organism-based. The conditions noted are these: dose 3-10 mg/kg.
The test system of data set [16] is Mus musculus. The experiment in a line: Antiinflammatory activity in MSU-induced acute gout arthritis in wild type female C57BL/6J mouse model assessed as decrease in paw inflammation at 10 mg/kg, ip measured after 24 hrs relative to control. Details: scale not given: the % may be the effect or the level left. The format is functional.
In data set [17] the test system is Mus musculus. The experiment in a line: Antiinflammatory activity in MSU-induced acute gout arthritis in wild type male C57BL/6J mouse model assessed as decrease in paw inflammation at 3 mg/kg, ip measured after 24 hrs relative to control. Format: functional. Details: scale not given: the % may be the effect or the level left.
For data set [18], the system named is Mus musculus. In words: Analgesic activity in MSU-induced mechanical hyperalgesia in wild type C57BL/6J mouse model assessed as decrease in paw withdrawal threshold at 10 mg/kg, ip measured after 24 hrs by von Frey test (Rvb= 72%). Format: functional. Details: scale not given: the % may be the effect or the level left.
Data set [19] concerns Mus musculus. The experiment in a line: Antiinflammatory activity in MSU-induced acute gout arthritis in NLRP3 knockout female C57BL/6J mouse model assessed as reduction in paw inflammation at 3 to 10 mg/kg, ip measured after 24 hrs relative to control. Format: functional. Details: scale not given: the % may be the effect or the level left. The following applies: dose 3-10 mg/kg.

Active and inactive are the calls of the source.

NACHT, LRR and PYD domains-containing protein 3 (Mus musculus), sequence (Q8R4B8 whole entry, the tested form may be a part): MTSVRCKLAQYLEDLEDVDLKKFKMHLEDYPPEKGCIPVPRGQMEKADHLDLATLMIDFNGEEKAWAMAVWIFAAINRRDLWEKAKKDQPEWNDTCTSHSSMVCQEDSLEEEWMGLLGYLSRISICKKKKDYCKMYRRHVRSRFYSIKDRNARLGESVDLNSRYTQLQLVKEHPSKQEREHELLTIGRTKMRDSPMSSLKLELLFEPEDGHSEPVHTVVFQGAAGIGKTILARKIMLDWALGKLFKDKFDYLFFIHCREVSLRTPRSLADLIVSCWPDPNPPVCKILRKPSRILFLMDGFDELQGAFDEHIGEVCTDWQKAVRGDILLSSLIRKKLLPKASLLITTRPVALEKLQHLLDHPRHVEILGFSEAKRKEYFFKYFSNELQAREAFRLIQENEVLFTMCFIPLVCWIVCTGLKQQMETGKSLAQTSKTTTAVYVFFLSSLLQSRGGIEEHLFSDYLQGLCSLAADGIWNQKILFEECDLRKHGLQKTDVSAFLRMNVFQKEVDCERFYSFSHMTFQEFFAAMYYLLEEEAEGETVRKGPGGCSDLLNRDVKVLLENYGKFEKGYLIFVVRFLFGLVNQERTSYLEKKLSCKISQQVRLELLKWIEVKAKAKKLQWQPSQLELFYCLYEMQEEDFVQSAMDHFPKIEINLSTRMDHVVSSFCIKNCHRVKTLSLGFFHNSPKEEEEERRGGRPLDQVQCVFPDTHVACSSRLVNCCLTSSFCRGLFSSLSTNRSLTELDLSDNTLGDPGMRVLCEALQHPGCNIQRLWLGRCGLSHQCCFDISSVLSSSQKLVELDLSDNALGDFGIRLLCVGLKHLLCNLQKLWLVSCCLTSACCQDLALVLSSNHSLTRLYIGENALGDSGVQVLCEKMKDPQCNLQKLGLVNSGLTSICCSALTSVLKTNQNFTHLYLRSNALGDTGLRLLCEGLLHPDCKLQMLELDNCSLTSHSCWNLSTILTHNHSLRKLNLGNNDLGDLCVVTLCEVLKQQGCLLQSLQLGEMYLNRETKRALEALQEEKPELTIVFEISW
NACHT, LRR and PYD domains-containing protein 3, sequence (Q8R4B8 whole entry, the tested form may be a part): as above

Consider `CC(C)(O)c1coc(S(=O)(=O)NC(=O)Nc2c3c(cc4c2CCC4)CCC3)c1`, for which the Activity in the data set with J774.A1 [1] is listed as 30%; in the data set with Mus musculus [4], 33%; in the data set on AML12 it was “Non-Toxic”; with J774.A1 [5], 30%; in the data set on J774.A1 [6], “Non-Toxic”. In addition, the result in the data set on Mus musculus [2] was Active. The IC50 in data set [3] stood at 0.39 nM.

With `Cc1cc(C)cc(NC(=O)[N-]S(=O)(=O)c2cc(C(C)(C)O)co2)c1.[Na+]`, the inhibition entry in [7], in data set [9], in data set [13] and in data set [14] was “Active” each time. The Activity in the data set with Mus musculus [8] is on record as 66%; in the data set on Mus musculus [10], 47%; in the data set with J774.A1 [1], 20%; in the data set on Mus musculus [11] it was 65%; in the data set with Mus musculus [12], 33%; in the data set on AML12, “Non-Toxic”. Besides, the Activity was 20% in the data set with J774.A1 [5]; 52% with Mus musculus [16]; 40% in the data set on Mus musculus [17]; 19% in the data set with Mus musculus [18]; “Non-Toxic” in the data set on J774.A1 [6]; 60% in the data set with Mus musculus [19]. In [3], the IC50 worked out at 0.23 nM. Besides, the result in the data set on Mus musculus [15] was Active.

What is called IC50 is the midpoint of a concentration-inhibition curve.
